{
  "source": "patent US11173178B2",
  "about": "“Liposomes for drug delivery and methods for preparation thereof” (priority 2008, dated 2021)",
  "test": "Stability of oxaliplatin in hydration solution (UV, absorbance at 254 nm)",
  "assay_type": "physicochemical",
  "description": "Oxaliplatin was dissolved in a hydration solution containing 10% sucrose and 1 mM Calcium gluconate (10 mg/ml). Sucrose was added to obtain an osmolarity approximately corresponding to physiological salt concentration. Stability of oxaliplatin in the hydration solution was followed by UV measurement. Samples were taken continually during storage at room temperature. Sample concentration measured was 0.1 mg/ml oxaliplatin. In order to follow the oxaliplatin stability a scan was performed from 200-350 nm (FIG. 1) and the absorbance at 254 nm was compared during storage (FIG. 2). Major changes in absorbance at 254 nm are usually related to oxaliplatin decomposition, which can easily be observed by dissolving oxaliplatin in solutions containing hydroxide and/or chloride ions.",
  "data": [
    {"smiles": "O=C1[O][Pt]2([NH][C@@H]3CCCC[C@H]3[NH]2)[O]C1=O", "note": "[Oxaliplatin, oxaliplatin]", "values": [
      {"measurement": "decomposition during storage (absorbance at 254 nm)", "setting": "10% sucrose solution containing 1 mM calcium gluconate, room temperature, at least 35 days", "value": "practically no decomposition"},
      {"measurement": "absorbance at 254 nm with common buffer components", "setting": "phosphate, citrate, acetate, ethanolamine (data not shown)", "value": "decrease the absorbance at 254 nm"}
    ]}
  ]
}
